According to paper PMC6987146, “Potent inhibition of HIV replication in primary human cells by novel synthetic polyketides inspired by Aureothin” (Scientific Reports, 2020):

Experiments:
HIV-1LAI [1] = assay: EASY-HIT assay: infectious virus production by LC5-RIC reporter cells exposed to HIV-1LAI; type: cell-based
Experimental: To identify natural compounds with anti-HIV activity we screened a collection of 10,000 natural compounds: Anti-HIV activity was evaluated by determining compound effects on infectious virus production by LC5-RIC cells which are highly susceptible for HIV and contain a DsRed1-encoding reporter gene activated by HIV-infection[6]–[8]. For screening, cultures of LC5-RIC reporter cells were first exposed to virus in the presence of the compound (first-step of the assay). Subsequently, supernatants of these cultures were transferred to secondary plates with uninfected LC5-RIC cells. The fluorescent signal of the cultures in the secondary plates served as a measure of compound effects on infectious virus production.
Anti-HIV activities of compounds were profiled in LC5-RIC cells with the EASY-HIT assay as described in[6]. Briefly, LC5-RIC cells were first exposed to virus and compounds (first step of the assay). Compound effects on infectious virus production were determined by transferring aliquots of supernatants of compound-treated cultures to secondary plates and measurement of fluorescent signal intensities in secondary plates after 72 h (second step of the assay). Fluorescent signal intensities determined for compound-treated cultures were normalized to those determined for untreated virus-exposed cultures.

HIV-1LAI [2] = assay: Inhibition of HIV infection of human PBMCs (infectious virus production, read out on LC5-RIC cells); type: cell-based; settings: human PBMCs exposed to HIV-1LAI, mean ± SD
Experimental: To evaluate anti-HIV efficacies of test compounds in primary human target cells, stimulated PBMCs were seeded in 96-well plates at a density of 500,000 cells per well, different #7concentrations of the compound (serial dilutions) and virus inoculum (MOI of 0.5) added to the PBMCs and cultures incubated for 48 h. Infectious virus production was quantified by transferring 35 µl of supernatant from the PBMC cultures to LC5-RIC cells, seeded in black 96-well plates one day earlier. LC5-RIC cultures were then incubated for 72 h and analysed for DsRed1 reporter expression and anti-HIV activity calculated as described for the EASY-HIT assay.

LC5-RIC cells = assay: CellTiter-Glo 2.0 cell viability assay in LC5-RIC cells; type: cell-based
Experimental: The following assays were used to profile cell safety of compound treatment in HIV-exposed cultures (LC5-RIC or PBMC): (1) CellTox^TM Green Cytotoxicity Assay, Promega, measures binding of a fluorescent dye to DNA of cells with impaired membrane integrity; (2) CellTiter-Glo® 2.0 Assay, Promega, which measures the amount of ATP in viable cells after lysis using an assay with luminescence read-out. Cells were plated into black 96-well plates followed by overnight incubation at 37 °C, 5% CO2. Compounds dissolved in DMSO were screened at multiple concentrations from 0.6 to 10,000 nM at a final DMSO concentration of 0.04% followed by additional 48 h incubation. Both assays were performed according to manufacturer’s recommendations and consecutively in the above mentioned order. Cells were washed once with PBS between the assays.

HIV-1LAI [3] = assay: Photostability of anti-HIV activity (24 h illumination vs dark, EASY-HIT read-out); type: cell-based; settings: 24 h illumination; compounds at IC90; LC5-RIC
Experimental: Figure 1 Profiling of photostability of anti-HIV activity of Aureothin and synthetic Aureothin-derivatives. Anti-HIV activity of compound samples illuminated for 24 h were normalised to anti-HIV activity of samples of the same compound kept in the dark. Anti-HIV activity was measured by quantifying the amounts of infectious virus produced by HIV-1LAI exposed LC5-RIC cells treated with compounds at IC90 concentrations (Supplementary Table S1). […] Shown are means of at least three independent experiments with biological triplicates (n ≥ 3; m = 3) and the standard error of the mean (SEM) indicated.
LC5-RIC cells were plated as described for the EASY-HIT assay. […] Plates were incubated either in the dark or under constant illumination with a commercially available desk lamp (2X Philips Master PL-S-9W/840/2 P, 30 cm between light source and compounds) for 24 h at room temperature. For analysis of anti-HIV activity, compound samples were transferred to LC5-RIC cells and their anti-HIV activity determined by measuring compound effects on infectious virus production with the EASY-HIT assay. Relative photostability was calculated by normalizing the anti-HIV activity of the illuminated compounds to the antiviral activity of compounds kept in the dark.

[4] = system: integrated proviral HIV-1 DNA; assay: Integrated proviral HIV-1 DNA by Alu-PCR in LC5-RIC cells; type: cell-based; settings: HIV-1LAI, 48 h, concentrations >2x IC90, normalized to DMSO
Experimental: Quantitative analysis of integrated copies of HIV proviral DNA by Alu-PCR was performed essentially as described in[46]. Briefly, LC5-RIC cells seeded at a density of 100,000 cells per well in 12-well plates and incubated for 24 h were exposed to test compounds and HIV-1LAI virus inoculum at an MOI of 0.5 and incubated for further 48 h at 37 °C, 5% CO2. Subsequently, cells were harvested and genomic DNA (gDNA) was extracted using the QIAamp DNA Mini Kit (QIAGEN) according to the manufacturer’s protocol. The relative amount of integrated proviral HIV-1 DNA was determined by two-step Alu-PCR[46]. The relative amounts of integrated proviral HIV-1 DNA in treated versus untreated samples were calculated by the 2^(−ΔΔCt) method, with ΔCT values representing CT (HIV) - CT (β-globin) for each sample and ΔΔCT values representing values of treated samples normalized to untreated samples.

HIV-2 = system: HIV-2; parameters: method as in PMID 22293827, PMID 10465070; settings: virus intrinsically resistant; cited from earlier work
[5] = Human immunodeficiency virus 1, LC5-RIC cells exposed to HIV-1LAI, infectious virus production, mean ± SD, read-out: IC50, half maximal inhibitory concentration
[6] = Human immunodeficiency virus 1, read-out: IC50, half maximal inhibitory concentration

COc1oc([C@H]2C/C(=C/C(C)=C/C(C)=C/C(C)=C/c3ccc([N+](=O)[O-])cc3)CO2)c(C)c(=O)c1C [Neoaureothin]
IC50 (HIV-1LAI [1]; [5]): 2.2 ± 0.06 nM

COc1oc([C@H]2C/C(=C/C(C)=C/c3ccc([N+](=O)[O-])cc3)CO2)c(C)c(=O)c1C [compound 1, Aureothin]
IC50 (HIV-1LAI [2]; read-out: IC50, half maximal HIV-inhibitory concentration): 11.7 ± 1.37 nM | IC90 (HIV-1LAI [2]; read-out: IC90, 90% HIV-inhibitory concentration): 45 ± 3.33 nM | CC50 (LC5-RIC cells): > 10000 nM | loss of anti-HIV-activity compared to the non-illuminated controls (HIV-1LAI [3]): ≥ 50% | IC50 (HIV-1LAI [1]; LC5-RIC cells exposed to HIV-1LAI, infectious virus production, mean ± SD, read-out: IC50, half maximal inhibitory concentration): 5.3 ± 0.4 nM | IC90 (HIV-1LAI [1]; read-out: IC90, 90% inhibitory concentration, LC5-RIC cells exposed to HIV-1LAI, infectious virus production, mean ± SD): 26.8 ± 2.54 nM

O=C1Nc2ccc(Cl)cc2[C@@](C#CC2CC2)(C(F)(F)F)O1 [Efavirenz]
reduction of levels of integrated proviral DNA [4]: > 90% | activity against HIV-2 (HIV-2): ineffective against HIV-2 | IC50 (HIV-1LAI [1]; [5]): ~1 nM

CC(C)(C)NC(=O)[C@@H]1C[C@@H]2CCCC[C@@H]2CN1C[C@@H](O)[C@H](Cc1ccccc1)NC(=O)[C@H](CC(N)=O)NC(=O)c1ccc2ccccc2n1 [Saquinavir]
IC50 (HIV-1LAI [1]; [6]): ~10 nM

Enfuvirtide
activity against HIV-2 (HIV-2): ineffective against HIV-2

C[C@@H]1CCO[C@H]2Cn3cc(C(=O)NCc4ccc(F)cc4F)c(=O)c(O)c3C(=O)N12 [Dolutegravir]
reduction of levels of integrated proviral DNA [4]: > 90% | IC50 (HIV-1LAI [1]; [6]): ~1 nM
